The record followed here is patent publication US20070093536A1, “Target protein of antidiabetic and novel antidiabetic insuful corresponding thereto” (priority 2003, published 2007).

The target of this experiment is T1, FLJ14797-derived protein (γ-tubulin ring complex protein) (Homo sapiens, UniProt Q9UGJ1).
T1 construct: histidine tag (N); FLAG tag (N); made in house; host or cells: cell-free protein synthesis system (PROTEIOS; TOYOBO) using wheat germ extracts
Briefly: Biacore S51 surface plasmon resonance analysis of interaction between compound and immobilized FLJ14797-derived protein. The format is binding. On the procedure:
Genes of interest in human full-length cDNA clones were subjected to BP reaction with a PCR cloning vector Gateway pDONR201 using Gateway system available from Invitrogen according to the kit's protocol to give an entry vector. pEU3-NII (TOYOBO) compatible with a cell-free protein synthesis system (PROTEIOS; TOYOBO) using wheat germ extracts was used as a source vector, from which a double-tag destination vector used as the destination vector of the Gateway system was prepared by introducing Gateway cassette with Gateway recombinant sequence into the pEU3-NII vector so that the Gateway system could be utilized, and further modifying the resulting vector by PCR so that peptides having histidine and FLAG tag sequences would be expressed in the N-terminal region of an expressed protein.
The prepared double-tag destination vector and entry vector were used to conduct […] using the Gateway system (Invitrogen) according to the protocol. The resulting product was transformed into Escherichia coli competent cells DH5α to select clones where the expression vector was introduced. Plasmids were prepared from the obtained clones using QIAfilter Midi kit (QIAGEN) according to the kit's protocol. The obtained plasmids were treated with phenol and chloroform according to the PROTEIOS (TOYOBO) protocol and subjected to the inactivation treatment of RNase to give purified expression plasmids.
Recombinant proteins were synthesized by the cell-free protein synthesis system (PROTEIOS; TOYOBO) using wheat germ extracts. mRNA was prepared according to the PROTEIOS protocol from the expression plasmids obtained by the method described in the paragraph 1. A 20-μg aliquot of the obtained mRNA was used to synthesize proteins in 2 wells of a 96-well micro titer plate according to the PROTEIOS protocol. The synthesized proteins were subjected to high-speed centrifugation treatment to remove precipitations. The obtained soluble fractions were purified using ANTI-FLAG M2 Affinity Gel (SIGMA) immobilizing thereon an anti-FLAG tag antibody according to the protocol to give purified proteins.
The surface of a CM5 sensor chip for S51 commercially available from Biacore was converted to NTA using IM EDC, 1.33 M NHS, and 16 mg/ml AB-NTA (pH 9.2) to make an NTA sensor chip for S51. The proteins expressed in the wheat germ system and purified with a FLAG tag were immobilized on this chip. The immobilization was performed by sequentially injecting 0.5 M NiCl2, 0.4 M EDC, […], a ligand (protein) solution, and 1 M ethanolamine (pH 8.5) into the passage system of Biacore S51. A running buffer used for the immobilization was PBS (pH 7.4). The ligand-immobilized sensor chip was used to conduct assay described below. A running buffer used was prepared by adding DMSO at the final concentration of 5% to HBS (10 mM HEPES and 150 mM NaCl, (pH 7.6)), 0.005% P20, and 100 uM mineral ion cocktail (Ca(OAc)2, Zn(OAc)2.2H2O, Cu(OAc)2.H2O, Co(OAc)2.4H2O, Mn(OAc)2.4H2O, Mg(OAc)2.4H2O, and FeCl3.6H2O). Compounds to be measured were prepared by making ½ serial dilutions (9 points) from 62.5 uM to 0.244 uM solutions. Solvents used for the compound solutions were prepared in the same composition as that of the running buffer. A solution containing only the solvents without the compound was prepared for zero-concentration measurement. […]
Background: In SPR one partner is held on a chip, and binding of the other changes the refractive index at the surface.

Setting [1] is: Biacore S51, FLJ14797-derived protein, same way as Example 1, Table 1, read-out: KD.

Where two headings read alike, the source gives them in different places.

T1 sequence (Q9UGJ1 whole entry, one chain of several): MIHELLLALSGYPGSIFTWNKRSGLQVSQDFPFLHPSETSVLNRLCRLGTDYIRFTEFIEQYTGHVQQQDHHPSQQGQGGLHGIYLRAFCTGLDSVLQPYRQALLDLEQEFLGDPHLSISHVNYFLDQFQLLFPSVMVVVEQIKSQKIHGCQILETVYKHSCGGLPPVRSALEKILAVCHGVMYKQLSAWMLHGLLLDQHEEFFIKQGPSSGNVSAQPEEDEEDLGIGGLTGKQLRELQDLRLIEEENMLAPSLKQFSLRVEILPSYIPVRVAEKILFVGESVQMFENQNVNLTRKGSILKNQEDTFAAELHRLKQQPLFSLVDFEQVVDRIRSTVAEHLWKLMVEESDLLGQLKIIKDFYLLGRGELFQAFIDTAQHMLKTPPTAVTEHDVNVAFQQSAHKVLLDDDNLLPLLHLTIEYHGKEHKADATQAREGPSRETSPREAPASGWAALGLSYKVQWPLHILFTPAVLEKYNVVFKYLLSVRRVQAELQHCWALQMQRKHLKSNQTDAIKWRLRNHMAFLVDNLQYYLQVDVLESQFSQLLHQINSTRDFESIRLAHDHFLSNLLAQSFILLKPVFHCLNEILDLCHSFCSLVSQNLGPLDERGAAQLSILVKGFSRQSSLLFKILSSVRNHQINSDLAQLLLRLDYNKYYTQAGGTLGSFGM

As a reminder, the Kd is the concentration at which binding is half-saturated. With `CCc1ccc(CCOc2ccc(CC3SC(=O)NC3=O)cc2)nc1` (centres unmarked) [pioglitazone, reference compound], the equilibrium dissociation constant (Kd) (Biacore S51, FLJ14797-derived protein immobilized on NTA chip, compound 62.5 uM to 0.244 uM, Example 1, read-out: binding dissociation constant KD) is 9.04 µM. Further, the “interaction with FLJ14797-derived protein (specificity of binding)” value (Biacore S51, binding dose-dependent and saturated at high doses) is reported as “specific”.
As for `CC1(OCCOc2ccc(CC3SC(=O)NC3=O)cc2)CCCCC1` (centres unmarked) [Compound A-1, 5-{4-[2-(1-methyl-cyclohexyloxy)-ethoxy]-benzyl}-thiazolidine-2,4-dione], the dissociation constant (Kd) under setting [1] turned out to be 8.43 µM.
Same read-out and setting: with `O=C1NC(=O)C(Cc2ccc(OCCOC3CCCC3)cc2)S1` (centres unmarked) [Compound A-3] the figure was 21.6 µM; with `O=C1NC(=O)C(Cc2ccc(OCCOC3CCCCC3)cc2)S1` (centres unmarked) [Compound A-2], 13.8 µM.
